In US10947252B2, “Inhibitors of KEAP1-Nrf2 protein-protein interaction” (Janssen Pharmaceutica NV, priority 2018, dated 2021) one finds EC50 and Kd data, which are given here for six compounds.

The subject of experiment [1] is Glo-Response ARE-luc2P HEK293 cell line. In words: ARE luciferase reporter cell-based assay.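 Also: luciferase signal tracks Nrf2 activation of the ARE once compounds disrupt KEAP1-Nrf2 binding, read with One-Glo reagent, DMSO serving as low control.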 The conditions noted are these: Homo sapiens, HEK293, 24 h, average of results obtained.
Experiment [2] has as its target Kelch domain of human KEAP1 (321-624 aa) (Homo sapiens (Human), UniProt Q14145). Briefly: KEAP1 KELCH ThermoFluor binding assay.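 Also: Ligand-induced melting temperature shift of E. coli-expressed KEAP1 Kelch protein, Kd estimated from concentration-response curves of ΔTm.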 The conditions noted are these: KEAP Kelch […], 1,8-ANS, pH 7.0, average of results obtained, read-out: Tf Kd. For orientation: In DSF a fluorescence change marks the thermal transition of the protein.

As usually defined, the pEC50 is the EC50 on a negative log10 scale, so that one unit is a factor of ten. Higher therefore signals a small EC50. One may read the pKd as the negative decadic logarithm of the Kd, by convention in mol/L.

pEC50, pKd: −log10 of the molar value.

Kelch domain of human KEAP1 (321-624 aa), sequence (Q14145 321-624): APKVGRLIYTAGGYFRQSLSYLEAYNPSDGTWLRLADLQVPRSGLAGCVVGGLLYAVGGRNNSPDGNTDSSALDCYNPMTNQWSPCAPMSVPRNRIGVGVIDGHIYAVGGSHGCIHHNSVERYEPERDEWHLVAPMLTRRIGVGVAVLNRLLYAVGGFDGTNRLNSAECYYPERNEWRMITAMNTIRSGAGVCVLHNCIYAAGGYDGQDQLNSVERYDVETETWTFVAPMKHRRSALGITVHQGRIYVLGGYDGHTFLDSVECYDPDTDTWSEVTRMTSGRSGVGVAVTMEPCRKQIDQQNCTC

Regarding `Cc1ccc([C@@H](CC(=O)O)c2ccn3c(C(F)F)nnc3c2C)cc1CN1C[C@@H]2CCCCN2c2ncccc2S1(=O)=O` (single isomer, unassigned) [Example 448, (*R)-3-(3-(Difluoromethyl)-8-methyl-[1,2,4]triazolo[4,3-a]pyridin-7-yl)-3-(3-(((*S)-5,5-dioxido-7,7a,8,9,10,11-hexahydro-6H-dipyrido[2,1-d:2′,3′-f][1,2,5]thiadiazepin-6-yl)methyl)-4-methylphenyl)propanoic Acid], the pEC50 in experiment [1] is 6.66. The pKd in experiment [2] is > 9.00.
On the same counts, the results for `CCn1nnc2c(C)c([C@@H](CC(=O)O)c3ccc(C)c(CN4CC5(COC5)Oc5ncccc5S4(=O)=O)n3)ccc21` (single isomer, unassigned) [Example 242, (*R)-3-(6-((1′,1′-Dioxidospiro[oxetane-3,4′-pyrido[2,3-b][1,4,5]oxathiazepin]-2′(3′H)-yl)methyl)-5-methylpyridin-2-yl)-3-(1-ethyl-4-methyl-1H-benzo[d][1,2,3]triazol-5-yl)propanoic Acid] are 6.96 and 8.74.
`Cc1ccc([C@H](CC(=O)O)c2ccn3c(C(F)(F)F)nnc3c2C)cc1CN1CC2(CC2)Oc2nc(NCCN3CCCCC3)ccc2S1(=O)=O` (single isomer, unassigned) [Example 112, (*S)-3-(3-((1′,1′-Dioxido-7′-((2-(piperidin-1-yl)ethyl)amino)spiro[cyclopropane-1,4′-pyrido[2,3-b][1,4,5]oxathiazepin]-2′(3′H)-yl)methyl)-4-methylphenyl)-3-(8-methyl-3-(trifluoromethyl)-[1,2,4[triazolo[4,3-a]pyridine-7-yl)propanoic Acid]: in experiment [1], the negative logarithm of the EC50 (pEC50) was 5.88. The pKd in experiment [2] is > 9.00.
`Cc1ccc([C@H](c2ccn3c(C(F)(F)F)nnc3c2C)C(C)(C)C(=O)O)cc1CN1CC2(CC2)Oc2nc(OCCN3CCC(F)CC3)c(C)cc2S1(=O)=O` (single isomer, unassigned) [Example 662, (*S)-3-(3-((7′-(2-(4-fluoropiperidin-1-yl)ethoxy)-8′-methyl-1′,1′-dioxidospiro[cyclopropane-1,4′-pyrido[2,3-b][1,4,5]oxathiazepin]-2′(3′H)-yl)methyl)-4-methylphenyl)-2,2-dimethyl-3-(8-methyl-3-(trifluoromethyl)-[1,2,4]triazolo[4,3-a]pyridine-7-yl)propanoic Acid] showed a pEC50 in experiment [1] of 6.51. In experiment [2], the pKd is 6.25.
On the same counts, the results for `CCn1nnc2c(C)c([C@H](CC(=O)O)c3ccc(C)c(CN4C[C@@H]5CCCCN5c5ncccc5S4(=O)=O)n3)ccc21` (single isomer, unassigned) [Example 302, (*S)-3-(6-(((*S)-5,5-Dioxido-7,7a,8,9,10,11-hexahydro-6H-dipyrido[2,1-d:2′,3′-][1,2,5]thiadiazepin-6-yl)methyl)-5-methylpyridin-2-yl)-3-(1-ethyl-4-methyl-1H-benzo[d][1,2,3]triazol-5-yl)propanoic Acid] are 8.55 and > 9.00.
In the same order, the values of `Cc1cc2cc([C@H](CC(=O)O)c3ccc(C)c(CN4C[C@@H]5CCCCN5c5ncccc5S4(=O)=O)c3)n(C)c2nn1` (single isomer, unassigned) [Example 442, (*R)-3-(3,7-Dimethyl-7H-pyrrolo[2,3-c]pyridazin-6-yl)-3-(3-(((*S)-5,5-dioxido-7,7a,8,9,10,11-hexahydro-6H-dipyrido[2,1-d:2′,3′-f][1,2,5]thiadiazepin-6-yl)methyl)-4-methylphenyl)propanoic Acid] are 6.26 and > 9.00.
